Like-named read-outs stand apart in the source and are kept apart here.

The subject of data set [1] is ADP-induced platelet aggregation in monkey PRP. As to the kind of experiment: Ex vivo platelet aggregation inhibition test in monkeys. Also noted: species or system cynomolgus monkeys (Macaca fascicularis). To be noted: for inhibition at 0.3 mg/kg / inhibition at 1 mg/kg: Macaca fascicularis, Platelet, read-out: Inhibition percentage of platelet aggregation in monkeys; for inhibition at 0.3 mg/kg: oral 0.3 mg/kg; for inhibition at 1 mg/kg: oral 1 mg/kg. On the procedure:
Ex Vivo Platelet Aggregation Inhibition Test in Monkeys
The compound of Example 84 was orally administered to two cynomolgus monkeys (Macaca fascicularis, male, aged 3 to 5) at a dose of 0.3 or 1 mg/kg. Before the administration or 2, 4 and 8 hours after the administration, blood (each 4.5 ml) was collected using an injection cylinder containing aqueous 3.8% citric acid solution in the amount of 1/10 of the volume of blood to be collected. Blood containing citric acid solution was centrifuged at 200×g for 10 minutes and the upper layer was collected as PRP. Furthermore, the residual blood was centrifuged at 1500×g for 10 minutes and the supernatant was collected as PPP. 190 μl of PRP was added to a cuvette and incubated at 37° C. for one minute, and then 10 μl of ADP solution (5 to 30 μM) was added to induce platelet aggregation. The percentage of platelet aggregation was measured by an aggregometer (PM8C, Mebanix, Tokyo) using PPP as the blank and inhibition percentage of platelet aggregation was determined by comparing the percentage of aggregation before administration of the compound with the percentage of aggregation after administration of the compound according to the following equation. Inhibition percentage of Platelet Aggregation (%)=100−(The percentage of Aggregation after administration of compound)/(The percentage of Aggregation before administration of compound)×100

Compound `O=C(O)COCCCC1CCCN1c1cnc(-c2ccccc2)c(-c2ccccc2)n1` (racemic) [Example 55, (±)-2-{3-[1-(5,6-diphenylpyrazin-2-yl)pyrrolidin-2-yl]propyloxy}acetic acid] gave a melting point of 137 to 139 °C.
On the same count and under the same terms, then `O=C(O)COCCCCC1CCCN1c1cnc(-c2ccccc2)c(-c2ccccc2)n1` (racemic) [Example 57, (±)-2-{4-[1-(5,6-diphenylpyrazin-2-yl)pyrrolidin-2-yl]butyloxy}acetic acid], with 138 to 140 °C.
For `O=C(O)COCCC1CCCN(c2cnc(-c3ccccc3)c(-c3ccccc3)n2)C1` (racemic) [Example 58, (±)-2-{2-[1-(5,6-diphenylpyrazin-2-yl)piperidin-3-yl]ethoxy}acetic acid], the melting point fell in the range of 139 to 140 °C.
On the same count and under the same terms, to `O=C(O)COCCCCN(c1cnc(-c2ccccc2)c(-c2ccccc2)n1)C1CCCC1` [Example 43, 2-{4-[N-(5,6-diphenylpyrazin-2-yl)-N-cyclopentylamino]butyloxy}acetic acid] belongs 101 to 103 °C; to `O=C(O)COCCCCN(c1cnc(-c2ccccc2)c(-c2ccccc2)n1)C1CCCCC1` [Example 44, 2-{4-[N-(5,6-diphenylpyrazin-2-yl)-N-cyclohexylamino]butyloxy}acetic acid], 130 to 131 °C; to `Cc1ccc(-c2ncc(N(CCCCOCC(=O)O)C(C)C)nc2-c2ccc(C)cc2)cc1` [Example 45, 2-{4-[N-(5,6-di-p-tolylpyrazin-2-yl)-N-isopropylamino]butyloxy}acetic acid], 155 to 156 °C.
For `CC(C)N(CCCCOCC(=O)O)c1nc(-c2ccccc2)c(-c2ccccc2)nc1Cl` [Example 47, 2-{4-[N-(3-chloro-5,6-diphenylpyrazin-2-yl)-N-isopropylamino]butyloxy}acetic acid], the melting point was 136 to 138 °C.
`CC(C)N(CCCCOCC(=O)O)c1nnc(-c2ccccc2)c(-c2ccccc2)n1` [Example 49, 2-{4-[N-(5,6-diphenyl-1,2,4-triazin-3-yl)-N-isopropylamino]butyloxy}acetic acid] came in with a melting point of 128 to 130 °C.
`Cc1ccc(-c2ncc(N(C)CCCCOCC(=O)O)nc2-c2ccc(C)cc2)cc1` [Example 50, 2-{4-[N-(5,6-di-p-tolylpyrazin-2-yl)-N-methylamino]butyloxy}acetic acid] showed a melting point of 161 to 162 °C.
The compound `COc1ccc(-c2ncc(N(C)CCCCOCC(=O)O)nc2-c2ccc(OC)cc2)cc1` [Example 51, 2-[4-{N-[5,6-bis(4-methoxyphenyl)pyrazin-2-yl]-N-methylamino}butyloxy]acetic acid] yielded a melting point of 128 to 130 °C.
On to `CN(CCCCOCC(=O)O)c1cnc(-c2ccc(F)cc2)c(-c2ccc(F)cc2)n1` [Example 52, 2-[4-{N-[5,6-bis(4-fluorophenyl)pyrazin-2-yl]-N-methylamino}butyloxy]acetic acid], for which the melting point lay in the range of 116 to 118 °C.
Still for that read-out and setting: to `O=C(O)COCCC1CCN(c2cnc(-c3ccccc3)c(-c3ccccc3)n2)CC1` [Example 54, 2-{2-[1-(5,6-diphenylpyrazin-2-yl)piperidin-4-yl]ethoxy}acetic acid] belongs 173 to 174 °C; to `CN(CCCCOCC(=O)O)c1nnc(-c2ccccc2)c(-c2ccccc2)n1` [Example 56, 2-{4-[N-(5,6-diphenyl-1,2,4-triazin-3-yl)-N-methylamino]butyloxy}acetic acid], 108 to 110 °C; to `CN(C[C@H](O)c1cccc(OCC(=O)O)c1)c1cnc(-c2ccccc2)c(-c2ccccc2)n1` [Example 59, (R)-(+)-2-[3-{2-[N-(5,6-diphenylpyrazin-2-yl)-N-methylamino]-1-hydroxyethyl}phenoxy]acetic acid], 158 to 159 °C.
The same measure, in the same setting: to `CN(CCc1cccc(OCC(=O)O)c1)c1cnc(-c2ccccc2)c(-c2ccccc2)n1` [Example 61, 2-[3-{2-[N-(5,6-diphenylpyrazin-2-yl)-N-methylamino]ethyl}phenoxy]acetic acid] belongs 174 to 176 °C.
Compound `CN(c1cnc(-c2ccccc2)c(-c2ccccc2)n1)C1CCc2c(OCC(=O)O)cccc21` (stereo not shown) [Example 62, 4-(carboxymethoxy)-1-[N-(5,6-diphenylpyrazin-2-yl)-N-methylamino]indane] came in with a melting point of 182 to 184 °C.
On to `CN(CCCCCCC(=O)O)c1cnc(-c2ccccc2)c(-c2ccccc2)n1` [Example 65, 7-[N-(5,6-diphenylpyrazin-2-yl)-N-methylamino]heptanoic acid], for which the melting point lay in the range of 114 to 118 °C.
Same read-out and setting: to `CN(CCCCCCCC(=O)O)c1cnc(-c2ccccc2)c(-c2ccccc2)n1` [Example 66, 8-[N-(5,6-diphenylpyrazin-2-yl)-N-methylamino]octanoic acid] belongs 116 to 117 °C; to `CN(CCCCCCCCC(=O)O)c1cnc(-c2ccccc2)c(-c2ccccc2)n1` [Example 67, 9-[N-(5,6-diphenylpyrazin-2-yl)-N-methylamino]nonanoic acid], 103 to 105 °C; to `CN(CCCCCC(=O)O)c1cnc(-c2ccccc2)c(-c2ccccc2)n1` [Example 68, 6-[N-(5,6-diphenylpyrazin-2-yl)-N-methylamino]hexanoic acid], 159 to 160 °C.
Same read-out and setting: then `CN(C/C=C\COCC(=O)O)c1cnc(-c2ccccc2)c(-c2ccccc2)n1` [Example 71, 2-{4-[N-(5,6-diphenylpyrazin-2-yl)-N-methylamino]-(Z)-2-buten-1-yloxy]acetic acid], with 148 to 150 °C; and `CN(C/C=C/COCC(=O)O)c1cnc(-c2ccccc2)c(-c2ccccc2)n1` [Example 72, 2-{4-[N-(5,6-diphenylpyrazin-2-yl)-N-methylamino]-(E)-2-buten-1-yloxy]acetic acid], with 128 to 130 °C.
Same read-out and setting: then `O=C(O)COCCCCSc1cnc(-c2ccccc2)c(-c2ccccc2)n1` [Example 76, 2-{4-[(5,6-diphenylpyrazin-2-yl)thio]butyloxy}acetic acid], with 86 to 88 °C; and `CN(CC1CCc2c(cccc2OCC(=O)O)C1)c1cnc(-c2ccccc2)c(-c2ccccc2)n1` (stereo not shown) [Example 77, 5-(carboxymethoxy)-2-{[N-(5,6-diphenylpyrazin-2-yl)-N-methylamino]methyl}-1,2,3,4-tetrahydronaphthalene], with 212 to 213 °C.
In the case of `CC(C)N(CCCC[S+]([O-])CC(=O)O)c1cnc(-c2ccccc2)c(-c2ccccc2)n1` (stereo not shown) [Example 79, 2-{4-[N-(5,6-diphenylpyrazin-2-yl)-N-isopropylamino]butylsulfinyl}acetic acid], the melting point was 117 to 120 °C (dec.).
Same read-out and setting: then `CC(C)N(CCCCS(=O)(=O)CC(=O)O)c1cnc(-c2ccccc2)c(-c2ccccc2)n1` [Example 80, 2-{4-[N-(5,6-diphenylpyrazin-2-yl)-N-isopropylamino]butylsulfonyl}acetic acid], with 183 to 185 °C; and `O=C(O)COCCCCS(=O)(=O)c1cnc(-c2ccccc2)c(-c2ccccc2)n1` [Example 82, 2-[4-(5,6-diphenylpyrazin-2-sulfonyl)butyloxy]acetic acid], with 123 to 125 °C.
With `CC(C)N(CCCCOCC(=O)NS(C)(=O)=O)c1cnc(-c2ccccc2)c(-c2ccccc2)n1` [Example 84, 2-{4-[N-(5,6-diphenylpyrazin-2-yl)-N-isopropylamino]butyloxy}-N-(methylsulfonyl)acetamide], the inhibition at 0.3 mg/kg in data set [1] (2 h after administration) came out at 28%; in data set [1] (4 h after administration) it was 34%; in data set [1] (8 h after administration), 19%. Also, the figures for the inhibition at 1 mg/kg in data set [1] (2 h after administration), in data set [1] (4 h after administration) and in data set [1] (8 h after administration) were 63%, 40% and 52%, respectively. The “ex vivo platelet aggregation inhibition (in words)” value in data set [1] (oral 0.3 or 1 mg/kg, 2 to 8 hours after administration) is on record as “inhibits platelet aggregation persistently in a dose-dependent manner”.

As usually defined, the melting point is the temperature, or range, at which the solid turns liquid. The inhibition is the drop in the measured response relative to a control, in per cent.

(Values after US7205302B2, “Heterocyclic compound derivatives and medicines” (Nippon Shinyaku Co., Ltd., priority 2001, dated 2007).)
